Experimental data taken from PubChem BioAssay (NCI).
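Step 1: Grow cells in 96-well plates. Step 2: Expose to compound for 48 hours at 5 concentrations. Step 3: Interpolate endpoints linearly; if unreached, use highest concentration. GI50: concentration for 50% inhibition of growth. At the TGI there is no net growth.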

Tests used:
Experiment in all cases: NCI anticancer screen, dose series, 48 h
SF-268 CNS = tested on: SF-268 CNS
MOLT-4 leukemia = tested on: MOLT-4 leukemia
KM12 colon = tested on: KM12 colon
IGROV1 ovarian = tested on: IGROV1 ovarian
OVCAR-3 ovarian = tested on: OVCAR-3 ovarian
OVCAR-4 ovarian = tested on: OVCAR-4 ovarian
NCI-H226 lung = tested on: NCI-H226 lung
MCF7 breast = tested on: MCF7 breast
SK-MEL-2 melanoma = tested on: SK-MEL-2 melanoma
SN12C renal = tested on: SN12C renal
UO-31 renal = tested on: UO-31 renal
U251 CNS = tested on: U251 CNS
CAKI-1 renal = tested on: CAKI-1 renal
A549 NSCLC = tested on: A549 NSCLC
OVCAR-8 ovarian = tested on: OVCAR-8 ovarian
HCT-116 colon = tested on: HCT-116 colon
HT29 colon = tested on: HT29 colon
T-47D breast = tested on: T-47D breast
HOP-92 NSCLC = tested on: HOP-92 NSCLC
SNB-19 CNS = tested on: SNB-19 CNS
RXF 393 renal = tested on: RXF 393 renal
MDA-MB-231 breast = tested on: MDA-MB-231 breast
TK-10 renal = tested on: TK-10 renal
DU-145 prostate = tested on: DU-145 prostate
K-562 leukemia = tested on: K-562 leukemia
HS 578T breast = tested on: HS 578T breast
SK-MEL-28 melanoma = tested on: SK-MEL-28 melanoma
HCC-2998 colon = tested on: HCC-2998 colon
A498 renal = tested on: A498 renal
UACC-62 melanoma = tested on: UACC-62 melanoma
HCT-15 colon = tested on: HCT-15 colon
MDA-MB-435 = tested on: MDA-MB-435
786-0 renal = tested on: 786-0 renal
ACHN renal = tested on: ACHN renal
NCI/ADR-RES ovarian = tested on: NCI/ADR-RES ovarian
SK-OV-3 ovarian = tested on: SK-OV-3 ovarian
SW-620 colon = tested on: SW-620 colon
UACC-257 melanoma = tested on: UACC-257 melanoma
HL-60(TB) leukemia = tested on: HL-60(TB) leukemia
SR leukemia = tested on: SR leukemia
CCRF-CEM leukemia = tested on: CCRF-CEM leukemia
HOP-62 NSCLC = tested on: HOP-62 NSCLC
NCI-H23 lung = tested on: NCI-H23 lung
NCI-H522 lung = tested on: NCI-H522 lung
PC-3 prostate = tested on: PC-3 prostate
COLO 205 colon = tested on: COLO 205 colon
SF-539 CNS = tested on: SF-539 CNS
MALME-3M melanoma = tested on: MALME-3M melanoma
OVCAR-5 ovarian = tested on: OVCAR-5 ovarian
M14 melanoma = tested on: M14 melanoma

## C=C1c2c(C)nn(-c3ccc(OC)cc3)c2N(C)C23C[C@@H]1C1(C)c4c(C)nn(-c5ccc(OC)cc5)c4N(C)C(C)(C[C@H]12)C3 (some centres undefined)
SF-268 CNS
  GI50: 3.63 µM
  TGI: 70.5 µM
MOLT-4 leukemia
  GI50: 2600 nM
  TGI: > 100 µM
KM12 colon
  GI50: 3.75 µM
  TGI: > 100 µM
IGROV1 ovarian
  GI50: 7.54 µM
  TGI: > 100 µM
OVCAR-3 ovarian
  GI50: 3.27 µM
  TGI: > 100 µM
OVCAR-4 ovarian
  GI50: 3.56 µM
  TGI: 54.6 µM
NCI-H226 lung
  GI50: 4.44 µM
  TGI: 63 µM
MCF7 breast
  GI50: 2690 nM
  TGI: > 100 µM
SK-MEL-2 melanoma
  GI50: 3.23 µM
  TGI: 9.94 µM
SN12C renal
  GI50: 3.65 µM
  TGI: > 100 µM
UO-31 renal
  GI50: 2610 nM
  TGI: > 100 µM
U251 CNS
  GI50: 2670 nM
CAKI-1 renal
  GI50: 2670 nM
  TGI: > 100 µM
A549 NSCLC
  GI50: 2690 nM
  TGI: 55.7 µM
OVCAR-8 ovarian
  GI50: 3.4 µM
  TGI: 39.3 µM
HCT-116 colon
  GI50: 2820 nM
  TGI: 12.8 µM
HT29 colon
  GI50: 3.24 µM
  TGI: > 100 µM
T-47D breast
  GI50: 1810 nM
  TGI: > 100 µM
HOP-92 NSCLC
  GI50: 1180 nM
  TGI: 5.4 µM
SNB-19 CNS
  GI50: 4.34 µM
  TGI: 55.8 µM
RXF 393 renal
  GI50: 1900 nM
  TGI: 6.08 µM
MDA-MB-231 breast
  GI50: 3.11 µM
  TGI: 15.7 µM
TK-10 renal
  GI50: 3.63 µM
  TGI: 11.8 µM
DU-145 prostate
  GI50: 4.38 µM
  TGI: > 100 µM
K-562 leukemia
  GI50: 3.6 µM
  TGI: > 100 µM
HS 578T breast
  GI50: 6.23 µM
  TGI: 77.4 µM
SK-MEL-28 melanoma
  GI50: 5.86 µM
  TGI: > 100 µM
HCC-2998 colon
  GI50: 4.07 µM
  TGI: > 100 µM
A498 renal
  GI50: 2470 nM
  TGI: 16.4 µM
UACC-62 melanoma
  GI50: 2860 nM
  TGI: > 100 µM
HCT-15 colon
  GI50: 3.11 µM
  TGI: > 100 µM
MDA-MB-435
  GI50: 3.4 µM
  TGI: > 100 µM
786-0 renal
  GI50: 4.23 µM
  TGI: 19.7 µM
ACHN renal
  GI50: 3.3 µM
  TGI: 19 µM
NCI/ADR-RES ovarian
  GI50: 4.04 µM
  TGI: > 100 µM
SK-OV-3 ovarian
  GI50: 3.39 µM
  TGI: 16.2 µM
SW-620 colon
  GI50: 3.63 µM
  TGI: > 100 µM
UACC-257 melanoma
  GI50: 2680 nM
  TGI: > 100 µM
HL-60(TB) leukemia
  GI50: 2540 nM
  TGI: > 100 µM
SR leukemia
  GI50: 3.16 µM
  TGI: > 100 µM
CCRF-CEM leukemia
  GI50: 3.41 µM
  TGI: > 100 µM
HOP-62 NSCLC
  GI50: 4.28 µM
  TGI: 18.9 µM
NCI-H23 lung
  GI50: 3.86 µM
  TGI: 53.6 µM
NCI-H522 lung
  GI50: 2770 nM
  TGI: 11 µM
PC-3 prostate
  GI50: 1750 nM
  TGI: 7.77 µM
COLO 205 colon
  GI50: 2200 nM
  TGI: 5.11 µM
SF-539 CNS
  GI50: 3.16 µM
  TGI: 16.8 µM
MALME-3M melanoma
  GI50: 3.24 µM
  TGI: > 100 µM
OVCAR-5 ovarian
  GI50: 11.3 µM
  TGI: > 100 µM
M14 melanoma
  GI50: 3.88 µM
  TGI: > 100 µM
